Experimental data from patent US10894784B2, “Heteroarylbenzimidazole compounds” (BAYER PHARMA AKTIENGESELLSCHAFT, priority 2015, dated 2021).

Molecular target: TBK1 (Homo sapiens (Human), UniProt Q9UHD2)
Test: TBK1 low ATP kinase assay (in vitro assay 1)
Format: biochemical
Conditions: in vitro assay 1, read-out: TBK1 low ATP kinase assay IC50

TBK1, sequence (Q9UHD2 whole entry): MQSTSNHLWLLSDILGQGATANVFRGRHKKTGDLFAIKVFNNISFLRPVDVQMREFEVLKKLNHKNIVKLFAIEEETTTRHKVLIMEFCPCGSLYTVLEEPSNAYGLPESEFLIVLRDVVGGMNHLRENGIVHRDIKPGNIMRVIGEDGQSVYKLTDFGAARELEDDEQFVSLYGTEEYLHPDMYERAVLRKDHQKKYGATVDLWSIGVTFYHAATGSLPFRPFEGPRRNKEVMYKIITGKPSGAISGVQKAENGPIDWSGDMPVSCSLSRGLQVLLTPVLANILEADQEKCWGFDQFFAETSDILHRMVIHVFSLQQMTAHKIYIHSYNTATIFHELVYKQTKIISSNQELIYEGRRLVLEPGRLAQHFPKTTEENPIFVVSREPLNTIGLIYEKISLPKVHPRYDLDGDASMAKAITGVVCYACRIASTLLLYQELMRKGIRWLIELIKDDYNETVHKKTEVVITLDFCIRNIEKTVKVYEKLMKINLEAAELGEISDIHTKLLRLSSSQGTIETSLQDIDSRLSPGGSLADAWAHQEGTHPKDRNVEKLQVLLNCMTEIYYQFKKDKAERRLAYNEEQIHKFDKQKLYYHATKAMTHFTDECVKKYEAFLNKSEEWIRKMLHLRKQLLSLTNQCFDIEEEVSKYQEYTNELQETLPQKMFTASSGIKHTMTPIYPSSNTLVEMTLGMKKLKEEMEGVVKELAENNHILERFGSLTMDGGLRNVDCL

Compound | IC50 [nM]
CSc1ncc(-c2ccc3nc(Nc4cc(CN5CCN(C(=O)CC(F)(F)F)CC5)ccn4)[nH]c3c2)cn1 [Example 45.05.01, 3,3,3-trifluoro-1-(4-{[2-({6-[2-(methylsulfanyl)pyrimidin-5-yl]-1H-benzimidazol-2-yl}amino)pyridin-4-yl]methyl}piperazin-1-yl)propan-1-one] | 1430
O=C(CC(F)(F)F)N1CCN(Cc2ccnc(Nc3nc4ccc(-c5nnc(CC6CCC6)o5)cc4[nH]3)c2)CC1 [Example 126.02, 1-(4-{[2-({6-[5-(cyclobutylmethyl)-1,3,4-oxadiazol-2-yl]-1H-benzimidazol-2-yl}amino)pyridin-4-yl]methyl}piperazin-1-yl)-3,3,3-trifluoropropan-1-one] | 3.9
O=C(C1CC1)N1CCN(Cc2ccnc(Nc3nc4ccc(-c5cc(OCC6CC6)ncn5)cc4[nH]3)c2)CC1 [Example 80.03, cyclopropyl(4-{[2-({6-[6-(cyclopropylmethoxy)pyrimidin-4-yl]-1H-benzimidazol-2-yl}amino)pyridin-4-yl]methyl}piperazin-1-yl)methanone] | 2.9
CSc1cc(-c2ccc3nc(Nc4cc(CN5CCN(C(=O)CC(F)(F)F)CC5)ccn4)[nH]c3c2)ncn1 [Example 95.01, 3,3,3-trifluoro-1-(4-{[2-({6-[6-(methylsulfanyl)pyrimidin-4-yl]-1H-benzimidazol-2-yl}amino)pyridin-4-yl]methyl}piperazin-1-yl)propan-1-one] | 6.6
Cc1cc(-c2ccc3nc(Nc4cc(C(C)N5CCN(C(=O)CC(F)(F)F)CC5)ccn4)[nH]c3c2Cl)ncn1 (single isomer, unassigned) [Example 98.02, 1-{4-[(1R or 1S)-1-(2-{[7-chloro-6-(6-methylpyrimidin-4-yl)-1H-benzimidazol-2-yl]amino}pyridin-4-yl)ethyl]piperazin-1-yl}-3,3,3-trifluoropropan-1-one] | 44
CCN(CC)C(=O)N1CCN(Cc2ccnc(Nc3nc4ccc(-c5ncncc5OC)cc4[nH]3)c2)CC1 [Example 35.01.04, N,N-diethyl-4-[(2-{[6-(5-methoxypyrimidin-4-yl)-1H-benzimidazol-2-yl]amino}pyridin-4-yl)methyl]piperazine-1-carboxamide] | 26.9
COc1c(NCC2CC2)ncnc1-c1ccc2nc(Nc3cc(C(C)N4CCN(C(=O)C5CC5)CC4)ccn3)[nH]c2c1 (single isomer, unassigned) [Example 109.02.02, cyclopropyl{4-[(1R or 1S)-1-{2-[(6-{6-[(cyclopropylmethyl)amino]-5-methoxypyrimidin-4-yl}-1H-benzimidazol-2-yl)amino]pyridin-4-yl}ethyl]piperazin-1-yl}methanone] | 2
CCOc1cnc(C)cc1-c1ccc2nc(Nc3cc(CN4CCN(C(=O)CC5CC5)CC4)ccn3)[nH]c2c1 [Example 09.03, 2-cyclopropyl-1-{4-[(2-{[6-(5-ethoxy-2-methylpyridin-4-yl)-1H-benzimidazol-2-yl]amino}pyridin-4-yl)methyl]piperazin-1-yl}ethanone] | 324
CC(c1ccnc(Nc2nc3ccc(-c4cc(N5CCOCC5)ncn4)cc3[nH]2)c1)N1CCN(C(=O)C2CC2)CC1 (single isomer, unassigned) [Example 118.02, cyclopropyl(4-{(1R or 1S)-1-[2-({6-[6-(morpholin-4-yl)pyrimidin-4-yl]-1H-benzimidazol-2-yl}amino)pyridin-4-yl]ethyl}piperazin-1-yl)methanone] | 3.3
CCN(CC)c1cc(-c2ccc3nc(Nc4cc(CN5CCN(C(=O)CC(F)(F)F)CC5)ccn4)[nH]c3c2)ncn1 [Example 155.02, 1-(4-{[2-({6-[6-(diethylamino)pyrimidin-4-yl]-1H-benzimidazol-2-yl}amino)pyridin-4-yl]methyl}piperazin-1-yl)-3,3,3-trifluoropropan-1-one] | 15
Cc1cc(-c2ccc3nc(Nc4cc(C(C)N5CCN(C(=O)CC(F)(F)F)CC5)ccn4)[nH]c3c2)n(C)n1 (single isomer, unassigned) [Example 89.02, 1-{4-[(1R or 1S)-1-(2-{[6-(1,3-dimethyl-1H-pyrazol-5-yl)-1H-benzimidazol-2-yl]amino}pyridin-4-yl)ethyl]piperazin-1-yl}-3,3,3-trifluoropropan-1-one] | 450
Cc1noc(-c2ccc3nc(Nc4cc(CN5CCN(c6c(Cl)cncc6Cl)CC5)ccn4)[nH]c3c2)n1 [Example 101.23, N-(4-{[4-(3,5-dichloropyridin-4-yl)piperazin-1-yl]methyl}pyridin-2-yl)-6-(3-methyl-1,2,4-oxadiazol-5-yl)-1H-benzimidazol-2-amine] | 280

The next lines start with the values.

IC50 [nM] | Compound
220 | O=C(C1CCC1)N1CCN(Cc2ccnc(Nc3nc4ccc(-c5ccnc(C(F)(F)F)n5)cc4[nH]3)c2)CC1 [Example 27.02, cyclobutyl(4-{[2-({6-[2-(trifluoromethyl)pyrimidin-4-yl]-1H-benzimidazol-2-yl}amino)pyridin-4-yl]methyl}piperazin-1-yl)methanone]
2.1 | O=C(CC(F)(F)F)N1CCN(Cc2ccnc(Nc3nc4ccc(-c5cc(NC6CC6)ncn5)cc4[nH]3)c2)CC1 [Example 151.02, 1-(4-{[2-({6-[6-(cyclopropylamino)pyrimidin-4-yl]-1H-benzimidazol-2-yl}amino)pyridin-4-yl]methyl}piperazin-1-yl)-3,3,3-trifluoropropan-1-one]
55.5 | Cc1cc(-c2ccc3nc(Nc4cc(CN5CCN(C(=O)CC6CC6)CC5)ccn4)[nH]c3c2)ccn1 [Example 01.04, 2-cyclopropyl-1-{4-[(2-{[6-(2-methylpyridin-4-yl)-1H-benzimidazol-2-yl]amino}pyridin-4-yl)methyl]piperazin-1-yl}ethanone]
360 | N#Cc1cnccc1-c1ccc2nc(Nc3cc(CN4CCN(C(=O)C5CC5)CC4)ccn3)[nH]c2c1 [Example 103.01, 4-{2-[(4-{[4-(cyclopropylcarbonyl)piperazin-1-yl]methyl}pyridin-2-yl)amino]-1H-benzimidazol-6-yl}pyridine-3-carbonitrile]
12.8 | O=C(C1CCC1)N1CCN(Cc2ccnc(Nc3nc4ccc(-c5cnn(CC(F)(F)F)c5)cc4[nH]3)c2)CC1 [Example 58.01.01, cyclobutyl(4-{[2-({6-[1-(2,2,2-trifluoroethyl)-1H-pyrazol-4-yl]-1H-benzimidazol-2-yl}amino)pyridin-4-yl]methyl}piperazin-1-yl)methanone]
205 | O=C(C1CC1)N1CCN(Cc2ccnc(Nc3nc4ccc(-c5cncnc5)cc4[nH]3)c2)CC1 [Example 45.01.03, cyclopropyl{4-[(2-{[6-(pyrimidin-5-yl)-1H-benzimidazol-2-yl]amino}pyridin-4-yl)methyl]piperazin-1-yl}methanone]
19 | COc1cc(-c2ccc3nc(Nc4cc(CN5CCN(C(=O)CC(F)(F)F)CC5)ccn4)[nH]c3c2)ncn1 [Example 163.02, 3,3,3-trifluoro-1-{4-[(2-{[6-(6-methoxypyrimidin-4-yl)-1H-benzimidazol-2-yl]amino}pyridin-4-yl)methyl]piperazin-1-yl}propan-1-one]
23.7 | CCOc1ncnc(-c2ccc3nc(Nc4cc(CN5CCN(C(=O)C6(C(F)(F)F)CC6)CC5)ccn4)[nH]c3c2)c1OC [Example 167.04]
